The values below are quoted from earlier work in PMC2912428 (Bioconjugate chemistry, 2010).

In the series the test system is SAv-Y43A. Conditions: SAv-Y43A vs WT SAv ref 21.

Take `O=C(O)CCCC[C@@H]1SC[C@@H]2NC(=O)N[C@@H]21` [biotin, D-biotin]: the “lower affinity of SAv-Y43A than wild-type SAv” value is recorded as 67 fold.
